# According to patent publication US4745102A, “Novel treatment method” (Roussel Uclaf, priority 1979, dated 1988):
# Entries after “also recorded” stand apart in the source; their conditions may differ.
# Legend:
# ovarian steroidogenosis = assay: Inhibition of ovarian steroidogenesis in women, intranasal, 6 consecutive cycles; type: in vivo; conditions: for reduction of seric levels of progesterone as compared to the controls: typical case (sheet 3)
# Method: The inhibitory activity of [D Ser (tbu)^6 des Gly NH2^10 ] LH-RH ethylamide on ovarian steroidogenosis in women was determined on 6 women aged 26 to 35 years with normal and regular menstrual cycles and without prior endocrinal or gynecological problems. The study was conducted for 6 consecutive cycles consisting of 2 pretreatment cycles, 2 treatment cycles and 2 post-treatment cycles. Two drops of a solution containing 500 μg of [D Ser (tbu)^6 des Gly NH2^10 ] LH-RH ethylamide were deposited on each nostril at 8 A.M. and 5P.M. of a day between the 4th and 9th day after the peak of LH-day 0. Daily blood samples were taken between 4 and 6 P.M. to measure seric levels of LH, FSH, progesterone and estradiol which were determined by radioimmuno-logictests with double antibodies. The antibodies to measure LH and FSH were furnished by the National Pituitory Agency of N.I.H. of Bethesda, Md.
# Estradiol and progesterone were measued with highly specific antibodies developed against 7-(0-carboxymethyl)oxime of estradiol and 12-(0-carboxymethyl)-oxime of progesterone, respectively [3H] 17β-estradiol and ^125 I-progesterone-12-[0-carboxymethyl)-oxime]used as tracers. The serum was extracted with benzene and the steroids were separated with a LH-20 column before the determination. The radioimmunological results were exploited by the program derived from model II of Rodbard and Lewald as in Example 1 and the statistical significance was measured by the multiple level test of Ducan-Kramer of Example 1. The results are shown in the graphs of sheets 3 to 5 of the FIG.
# [1] = test system: testicular steroidogensis; assay: Inhibition of testicular steroidogenesis in healthy men, single intranasal dose; seric LH, FSH and steroids by radioimmunoassay; type: in vivo
# Method: The inhibitory activity of [D Ser (tbu)^6 of des Gly NH2^10 ] LH-RH ethylamide (described in German application Ser. No. 2,438,350) against testicular steroidogensis in men in good health was determined on men in good health aged 30 to 40 years. The said product was administered intranasally at a dose of 500 μg in a few drops of distilled water at 8 A.M. on the third day of the test. For 2 days prior to the treatment and for 6 days after the treatment, samples of blood were taken daily at 8 A.M., 3 P.M. and 10 P.M. On the day of administration of the LH-RH agonist, blood samples were taken at 11 A.M. and 6 P.M.
# The seric concentrations of LH and FSH were measured by radioimmuno-logic dosages with double antibodies and the antibodies for measuring LH and FSH were furnished by the National Pituitary Agency of N.I.H. in Bethesda, Md. The seric concentrations of steroids was measured by radioimmuno-logic dosages in which one ml of serum was extracted with ether and the steroids were separated on a LH-20 column before measuring with radioimmuno-logic dosages. The radioimmuno-logic dosage results were determined by a program derived from model II of Rodbard et al [Second Karolinska Symposium on Research Methods in Reproductive Endrocrinology, Diczfalusky Editor, Copenhague (1970), p. 79-103]. The statistical significance was determined by the "multiple level test" of Ducan-Kramer [Kramer, Biometrics, Vol 12 (1956), p. 307]. The results are shown in the graphs on sheet 1 of the FIGS. filed herewith.
# [2] = test system: testicular steriodogenosis; assay: Inhibition of testicular steroidogenesis in a patient with prostate cancer, intranasal twice a day; type: in vivo, human; conditions: intranasal 500 μg twice a day
# Description: The inhibitory activity of [D Ser (tbu)^6 des Gly NH2^10 ] […] The results are reported in the graphs of sheet 2 of the Figures.
compound,measurement,setting,value
CCNC(=O)[C@@H]1CCCN1C(=O)[C@H](CCCNC(=N)N)NC(=O)[C@H](CC(C)C)NC(=O)[C@@H](COC(C)(C)C)NC(=O)[C@H](Cc1ccc(O)cc1)NC(=O)[C@H](CO)NC(=O)[C@H](Cc1c[nH]c2ccccc12)NC(=O)[C@H](Cc1c[nH]cn1)NC(=O)[C@@H]1CCC(=O)N1 [[D Ser (tbu)^6 des Gly NH2^10] LH-RH ethylamide],"level of progesterone, cycles of pretreatment as base of 100%",ovarian steroidogenosis; 12 cycles of post-treatment,99%
same,"level of progesterone, cycles of pretreatment as base of 100%",ovarian steroidogenosis; 12 cycles of treatment,46%
same,level of progesterone reduced as compared to the controls,"ovarian steroidogenosis; all results (sheet 5), cycles of treatment",46%
same,level of seric progesterone in the 2 cycles of post-treatment,"ovarian steroidogenosis; sheet 4, post-treatment cycles",return to normal
same,level of seric progesterone in the 2 cycles of treatment,"ovarian steroidogenosis; sheet 4, treatment cycles",accelerated diminution
same,reduction of seric levels of progesterone as compared to the controls,"ovarian steroidogenosis; first cycle of treatment, intranasal 500 μg at 8 A.M. and 5 P.M.",13%
same,reduction of seric levels of progesterone as compared to the controls,ovarian steroidogenosis; second cycle of treatment,34%
same,duration of drop of seric levels of testicular steroids (testosterone and its precursors),"[1]; human, single intranasal dose 500 μg",3 days
same,level of testosterone/steroids on the fourth day after administration,"[1]; human, single intranasal dose 500 μg, fourth day (until 6th day)",returned to normal; also recorded: return to normal levels
same,overall effect on testicular steroidogenesis,"[1]; men, intranasal 500 μg",inhibition of testicular steroidogenesis
same,level of androgenic steroids,[2],diminution
